Laboratory results from PubChem BioAssay (NCI).
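Each compound was tested at five concentrations against cells in 96-well plates for 48 hours. Abbreviation: GI50, concentration required for 50% inhibition of growth. TGI is the concentration that stops growth completely.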

Key:
Experiment in all cases: NCI tumour cell line growth inhibition, 48 h
[1] = test system: HCT-116 colon
[2] = test system: NCI-H522 lung
[3] = test system: BT-549 breast
[4] = test system: MDA-MB-231 breast
[5] = test system: 786-0 renal
[6] = test system: NCI-H460 lung
[7] = test system: NCI-H226 lung
[8] = test system: HS 578T breast
[9] = test system: UO-31 renal
[10] = test system: K-562 leukemia

Row | SMILES | TGI [1] [µM] | TGI [2] [µM] | TGI [3] [µM] | TGI [4] [µM] | TGI [5] [µM] | TGI [6] [µM] | TGI [7] [µM] | TGI [8] [µM] | TGI [9] [µM] | TGI [10] [µM] | GI50 [2] [µM] | GI50 [3] [µM] | GI50 [4] [µM] | GI50 [6] [µM] | GI50 [9] [µM] | GI50 [10] [µM]
1 | O=S(=O)(c1ccc(Br)cc1)n1c2ccc(Br)cc2c2nc3ccccc3nc21 | > 100 | > 100 | > 100 | > 100 | > 100 | > 100 | > 100 | > 100 | > 100 | > 100 | – | – | – | – | – | –
2 | C/C=C/[C@@]1(OC(=O)c2ccccc2)C[C@@H]2CCCC[C@@H]21 | 29.4 | 29.9 | 28.2 | 36.3 | 31.8 | 34.2 | 30.9 | 27.2 | 22.9 | 56.7 | – | – | – | – | – | –
3 | CN(C)CCNc1ccc(C(=O)NCCCN(C)CCCNC(=O)c2ccc(NCCN(C)C)c3c(=O)c4ccccc4[nH]c23)c2[nH]c3ccccc3c(=O)c12 | 0.409 | 0.0685 | 0.971 | 0.388 | 1.66 | 1.43 | 0.148 | 1.75 | 15.8 | 5.27 | – | – | – | – | – | –
4 | O=C1CSC2(CC(/C=C/c3ccccc3)=NN2c2cccc(S(=O)(=O)O)c2)N1c1nc2ccccc2s1 (stereo not drawn) | > 100 | 37 | 52.8 | 47.8 | 33 | > 100 | > 100 | > 100 | 35.7 | > 100 | – | – | – | – | – | –
5 | CC[C@@]1(O)C(=O)OCc2c1cc1n(c2=O)Cc2c-1nc1ccccc1c2/C=N\NC(=O)C(N)CC(C)C (stereo partly drawn) | 5.37 | 1.6 | > 100 | > 100 | > 100 | 1.26 | 0.975 | > 100 | 0.201 | > 100 | – | – | – | – | – | –
6 | C=C(C)[C@@]1(O)O[C@H]2C[C@@]3(C)OC(=CC3=O)/C(C)=C\[C@@H]3OC(=O)[C@@]1(C)[C@H]32 | 20.6 | 15.6 | 23.9 | 43.9 | 26.7 | > 76.8 | 69.8 | > 100 | 57 | 35.4 | – | – | – | – | – | –
7 | O=C1c2ccccc2C2CNC1(O)c1ccccc12 (stereo not drawn) | > 100 | > 100 | > 100 | > 100 | > 100 | > 100 | > 100 | > 100 | > 100 | > 100 | – | – | – | – | – | –
8 | O=C1Oc2ccccc2C(=O)/C1=C/N1C(=O)N/C(=C\c2ccccc2O)C1=O | > 100 | > 100 | > 100 | > 100 | > 100 | > 100 | > 100 | > 100 | > 100 | > 100 | – | – | – | – | – | –
9 | O=C(COc1ccc(OCC(=O)N2C(=O)CC(=O)N(c3ccccc3)C2=S)cc1)N1C(=O)CC(=O)N(c2ccccc2)C1=S | 60.1 | > 100 | > 100 | > 100 | > 100 | > 100 | > 100 | – | > 100 | > 100 | – | – | – | – | – | –
10 | Cc1[nH]c2ncn(/N=C/c3ccccc3O)c(=N)c2c1Cc1ccccc1 | > 100 | – | > 100 | > 100 | > 100 | > 100 | > 100 | > 100 | > 100 | > 100 | – | – | – | – | – | –
11 | O=c1cc(CNC2CCCC2)[nH]c(=O)[nH]1 | > 100 | > 100 | > 100 | > 100 | > 100 | > 100 | – | > 100 | > 100 | > 100 | – | – | – | – | – | –
12 | O=c1[nH]c(=O)n(C2CC(O)C(CO)O2)cc1I (stereo not drawn) | > 100 | > 100 | > 100 | > 100 | > 100 | > 100 | > 100 | > 100 | > 100 | > 100 | – | – | – | – | – | –
13 | O=C1C2CCCCC2C(=O)N1n1c(Cc2ccc(Cl)cc2)n[nH]c1=O (stereo not drawn) | > 100 | > 100 | > 100 | > 100 | > 100 | > 100 | > 100 | > 100 | > 100 | > 100 | – | – | – | – | – | –
14 | COc1c2cc([N+](=O)[O-])cc1CNC(=O)CN1CCOCCOCCN(CCOCCOCC1)CC(=O)NC2 | > 100 | > 100 | > 100 | > 100 | > 100 | > 100 | > 100 | > 100 | > 100 | > 100 | – | – | – | – | – | –
15 | O=S(=O)(Oc1ccc2oc3ccccc3c2c1-c1c(OS(=O)(=O)C(F)(F)F)ccc2oc3ccccc3c12)C(F)(F)F | > 100 | > 100 | > 100 | > 100 | > 100 | > 100 | > 100 | > 100 | > 100 | > 100 | – | – | – | – | – | –
16 | C=C(C)C(=O)CC[C@@H](C)[C@H]1[C@@H](OC2OC(CO)C(O)C(O)C2O)C[C@@]2(C)[C@@H]3C[C@H](O)C4C(C)(C)[C@@H](OC5OC(CO)C(O)C(O)C5O)CC[C@@]45C[C@@]35CC[C@]12C (stereo partly drawn) | > 100 | > 100 | > 100 | > 100 | > 100 | > 100 | – | > 100 | > 100 | > 100 | – | – | – | – | – | –
17 | O=C(Cc1ccccc1)NCCc1ccc(O)c(O)c1 | > 100 | > 100 | > 100 | > 100 | > 100 | > 100 | > 100 | > 100 | > 100 | 39.8 | – | – | – | – | – | –
18 | COc1cc2c(cc1OCCCN1CCN(CCCOc3cc4c(cc3OC)C(=O)N3CCC[C@H]3C=N4)CC1)C=CC(C)(C)O2 | – | 4.27 | 2.47 | 2.58 | – | 2.32 | – | – | 3.49 | 1.03 | 1.48 | 0.941 | 1.31 | 1.1 | 1.51 | 0.32
19 | Nc1nc(Cl)cc(NCC2(O)CC(CO)C2)n1 (stereo not drawn) | > 100 | > 100 | > 100 | > 100 | > 100 | > 100 | > 100 | > 100 | > 100 | > 100 | – | – | – | – | – | –
20 | CN(C)c1nc2sc3c(c2c(=O)o1)CCCC3 | > 100 | > 100 | 65.5 | > 100 | > 100 | > 100 | 81 | > 100 | > 100 | > 100 | – | – | – | – | – | –
21 | O=C1C=CC2CCC1C2 (stereo not drawn) | > 100 | 65.9 | 73.3 | > 100 | > 100 | > 100 | 98.5 | 80.4 | > 100 | > 100 | – | – | – | – | – | –
